Source: EP3241555A1, “USE OF PYROPHOSPHATE ION ANALOGUES FOR THE TREATMENT OF HPV INFECTION” (Agencia Pública Empresarial Sanitaria Costa Del Sol, priority 2014, dated 2016)
Values joined by “and” are separate entries in the source; they are usually repeats but may differ in a detail not shown here. Equal values may be shown once.

Legend:
[1] = test system: HPV; experiment: Expanded trial in 28 patients with warts treated with topical foscarnet; format: in vivo, human
Method: A total of 28 patients, from which 64.3% are female patients and 35.7% male patients to whom treatment was administered, were studied. The mean age was […] (6-64) and with a median age of 16 years.
It is important to point out that 96.4% of the patients had received prior treatments without any results, where the most common treatments are cryotherapy involving 78.6% of said patients and topical keratolytic drugs involving 67.9% of them.
Most of the patients (71.4%) applied the treatment 2 times a day and in 78.6% of the cases, the area of application was banded for the night. The rest of the patients applied the treatment 1 or 3 times/day.
The mean duration of the treatment was 11.57 (3-28) weeks.

[2] = molecular target: HIV reverse transcriptase (HIV, RT) (Human immunodeficiency virus type 1 group M subtype B, UniProt P04585); settings: read-out: ID50; cited from earlier work
[3] = test system: HPV; settings: used topically, master formulation as a cream; different types of viral warts; cited from earlier work

O=C(O)P(=O)(O)O [foscarnet, phosphonoformic acid]
Adverse effects to treatment: No, Percentage ([1]; 28 patients): 89.3%
Adverse effects to treatment: No, Percentage valid ([1]; 28 patients): 89.3%
Adverse effects to treatment: Yes, Percentage valid ([1]; 28 patients): 10.7%
Response to treatment: Complete, Percentage ([1]; 28 patients): 39.3%
Response to treatment: Complete, Percentage valid ([1]; 28 patients): 39.3%
Response to treatment: No, Percentage ([1]; 28 patients): 28.6%
Response to treatment: No, Percentage valid ([1]; 28 patients): 28.6%
Response to treatment: Partial, Percentage ([1]; 28 patients): 32.1%
Response to treatment: Partial, Percentage valid ([1]; 28 patients): 32.1%
percentage of response ([1]; 28 patients, full plus partial response): 71.4%
Adverse effects to treatment: Yes, Percentage ([1]; 28 patients, very mild localized adverse effects (erythema or slight irritation/itch)): 10.7%
Time effect starts (weeks), Maximum ([1]; N valid 28): 16 weeks
Time effect starts (weeks), Mean ([1]; N valid 28): 5.25 (± 4.98) weeks and 5.25 weeks
Time effect starts (weeks), Median ([1]; N valid 28): 4.00 weeks
Time effect starts (weeks), Minimum ([1]; N valid 28): 0 weeks
Adverse effects to treatment: No, Frequency ([1]; number of patients out of 28): 25
Response to treatment: Complete, Frequency ([1]; number of patients out of 28): 11
Response to treatment: No, Frequency ([1]; number of patients out of 28): 8
Response to treatment: Partial, Frequency ([1]; number of patients out of 28): 9
Recurrence: No, Frequency ([1]; number of patients out of 28, 1 lost): 27
Adverse effects to treatment: Yes, Frequency ([1]; number of patients out of 28, very mild localized adverse effects (erythema or slight irritation/itch)): 3
Recurrence: No, Percentage valid ([1]; of 27 valid patients): 100.0%
Recurrence: No, Percentage ([1]; of 28 patients, 1 lost): 96.4%

O=C(O)P(=O)(O)O [Trisodium phosphonoformate]
IC50 [2]: ~1000 nM

Nc1ccn(C[C@@H](CO)OCP(=O)(O)O)c(=O)n1 [cidofovir]
cure rates [3]: high cure rates
